Reference: patent US5444082A, “3,9-disubstituted-spiro(5.5)undecanes active on the cardiovascular system, process for their preparation and pharmaceutical composition containing same” (Sigma-Tau Industrie Farmaceutiche Riunite S.p.A., priority 1992, dated 1995)

What was measured:
Na^+,K^+ -ATPase [1] = target: T1, Na^+,K^+ -ATPase (Homo sapiens, UniProt P05023); assay: displacement of the specific 3H-ouabain binding from the purified Na+,K+-ATPase receptor; conditions: read-out: Binding ^3 H-Ouab. Displacement log. IC50 (converted)
T1 construct: receptor purified according to Jorgensen (Jorgensen P., BBA, 1974,356, 36); from tissue
Source text: (§1) To test the affinity for the receptor site of the Na^+,K^+ -ATPase and the agonist or antagonist activity on the enzyme, the following tests are used: a) displacement of the specific 3-Houabain binding from the Na^+,K^+ -ATPase receptor purified according to Jorgensen (Jorgensen P., BBA, 1974,356, 36) and Erdmann (L. Brown and E. Erdmann., Arzneim. Forsh., 1984, 34 (II), 1314); b) inhibition of the activity of the purified Na^+,K^+ -ATPase measured as % of hydrolysis of ^32 P-ATP in presence and in absence of the tested compound (F. Noel and Godfraind., Biochem. Pharmacol., 1984, 33, 47).

Na^+,K^+ -ATPase [2] = target: T1, Na^+,K^+ -ATPase; assay: inhibition of the activity of the purified Na+,K+-ATPase, measured as % of hydrolysis of 32P-ATP; type: biochemical; conditions: read-out: Inhibitory Activity log IC50 (converted)
Source text: as §1

| Structure (SMILES) | IC50 (Na^+,K^+ -ATPase [1]) [µM] | IC50 (Na^+,K^+ -ATPase [2]) [µM] |
| --- | --- | --- |
| C(=CC1CCC2(CC1)CCC(OCCN1CCCC1)CC2)c1ccoc1 (mixture of isomers) [Comp. I-a, (EZ)-9-(2(N-Pyrrolidinyl)ethoxy)-3-(2-(3-furyl)vinyl)-spiro[5.5]undecane] | 79.4 | 25.1 |
| C1CCN(CCOC2CCC3(CCC(CCC4CCOC4)CC3)CC2)C1 (racemic) [Comp. 1-i, (RS)-9-(2-(N-Pyrrolidinyl)ethoxy)-3-(2-(3-(RS)-tetra-hydrofuryl)ethyl)-spiro[5.5]undecane] | 100 | 100 |
| NCCSCC1CCC2(CC1)CCC(Cc1ccoc1)CC2 (stereo not shown) [Comp. 1-be, 9-(2-Aminoethylthiomethyl)-3-(3-furyl)methyl-spiro[5.5]undecane] | 10 | 15.8 |
| O=C1OCC=C1CCC1CCC2(CC1)CCC(OCCN1CCCC1)CC2 (stereo not shown) [Comp. 1-bg, 9-(2-(N-pyrrolidinyl)ethoxy)-3-(2-(2-oxo-[5H]-3-furyl)ethyl)-spiro[5.5]undecane] | 100 | 100 |
| OC1(Cc2ccoc2)CCC2(CCC(COCCN3CCCC3)CC2)CC1 (stereo not shown) [Comp. I-ab, 9-(2-(N-Pyrrolidinyl)ethoxy)methyl-3-(3-furyl)meth-yl-3-hydroxy-spiro[5.5]undecane] | 15.8 | 15.8 |
| N=C(N)NN=C1CCC2(CC1)CCC(CO)CC2 (stereo not shown) [Comp. I-ay, 9-Hydroxymethyl-3-guanidinoimino-spiro[5.5]undecane] | 25.1 | 100 |
| N=C(N)NN=CC1CCC2(CCC(O)CC2)CC1 (stereo not shown) [Comp. I-az, 9-Hydroxy-3-guanidinoiminomethyl-spirol[5.5]undecane] | 15.8 | 63.1 |
| c1cc(CC2CCC3(CCC(CSCCN4CCCC4)CC3)CC2)co1 (stereo not shown) [Comp. I-bf, 9-(2-(N-Pyrrolidinyl)ethyl-thiomethyl)-3-(3-furyl)methyl-spiro[5.5]undecane] | 39.8 | 100 |
| O=C1C=C(CCC2CCC3(CC2)CCC(OCCN2CCCC2)CC3)CO1 (stereo not shown) [Comp. I-bh, 9-(2-(N-Pyrrolidinyl)ethoxy)-3-(2-(2-oxo-[5H]-4-furyl)-ethyl)-spiro[5.5]undecane] | 63.1 | 100 |
| c1cc(CCC2CCC3(CC2)CCC(OCCN2CCCC2)CC3)co1 (stereo not shown) [Comp. I-g, 9-(2-(N-Pyrrolidinyl)ethoxy)-3-(2-(3-furyl)ethyl)-spiro[5.5]undecane] | 12.6 | 15.8 |
| c1cncc(CCC2CCC3(CC2)CCC(OCCN2CCCC2)CC3)c1 (stereo not shown) [Comp. I-h, 9-(2-(N-Pyrrolidinyl)ethoxy)-3-(2-(3-pyridyl)ethyl)-spiro[5.5]undecane] | 25.1 | 100 |
| c1cc(CC2CCC3(CCC(COCCN4CCCC4)CC3)CC2)co1 (stereo not shown) [Comp. I-j, 9-(2-(N-Pyrrolidinyl)ethoxy)methyl-3-(3-furyl)methyl-spiro[5.5]undecane] | 7.94 | 50.1 |
| c1cc(CCC2CCC3(CC2)CCC(OCCCN2CCCC2)CC3)co1 (stereo not shown) [Comp. I-m] | 31.6 | 50.1 |
| c1cc(CC2CCC3(CCC(COCCCN4CCCC4)CC3)CC2)co1 (stereo not shown) [Comp. I-r, 9-(3-(N-Pyrrolidinyl)propoxy)methyl-3-(3-furyl)-methyl-spiro[5.5]undecane] | 31.6 | 12.6 |
| OC(COC1CCC2(CCC(CCc3ccoc3)CC2)CC1)CN1CCCC1 (stereo not shown) [Comp. I-t, 9-(3-(N-Pyrrolidinyl)-2-hydroxypropoxy)-3-(2-(3-furyl)ethyl)-spiro[5.5]undecane] | 100 | 50.1 |
| NC(CO)COC1CCC2(CCC(CCc3ccoc3)CC2)CC1 (stereo not shown) [Comp. I-u, 9-(2-Amino-3-hydroxypropoxy)-3-(2-(3-furyl)ethyl)-spiro[5.5]undecane] | 50.1 | 50.1 |
| OC1(CCc2ccoc2)CCC2(CCC(OCCN3CCCC3)CC2)CC1 (stereo not shown) [Comp. I-x, 9.(2-(N-pyrrolidinyl)ethoxy)-3-(2-(3-furyl)ethyl)-3-hydroxy-spiro[5.5]undecane] | 100 | 100 |
